According to ChEMBL document CHEMBL1938361, “Elaborate ligand-based modeling and subsequent synthetic exploration unveil new nanomolar Ca2+/calmodulin-dependent protein kinase II inhibitory leads” (Bioorg Med Chem, 2012):

Target: Calcium/calmodulin-dependent protein kinase type II subunit delta (Homo sapiens, UniProt Q13557)
Experiment: Inhibition of human recombinant CAMK2delta using tetramethylbenzidine as substrate by spectrophotometry analysis

Chain of Calcium/calmodulin-dependent protein kinase type II subunit delta (Q13557 whole entry): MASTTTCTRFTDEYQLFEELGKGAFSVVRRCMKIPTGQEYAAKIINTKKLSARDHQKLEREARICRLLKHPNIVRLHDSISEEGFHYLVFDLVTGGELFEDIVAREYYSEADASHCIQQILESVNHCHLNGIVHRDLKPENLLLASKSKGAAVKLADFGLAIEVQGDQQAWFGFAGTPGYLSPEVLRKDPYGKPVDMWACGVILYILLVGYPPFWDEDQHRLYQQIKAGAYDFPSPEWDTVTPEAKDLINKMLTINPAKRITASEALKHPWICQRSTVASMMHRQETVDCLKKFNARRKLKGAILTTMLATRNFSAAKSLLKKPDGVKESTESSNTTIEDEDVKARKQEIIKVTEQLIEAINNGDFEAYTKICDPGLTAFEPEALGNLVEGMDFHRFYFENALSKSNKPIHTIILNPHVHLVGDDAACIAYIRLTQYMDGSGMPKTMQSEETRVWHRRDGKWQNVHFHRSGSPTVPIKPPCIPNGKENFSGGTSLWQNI

## CN([C@@H](Cc1ccc(OS(=O)(=O)c2cccc3cnccc23)cc1)C(=O)N1CCN(c2ccccc2)CC1)S(=O)(=O)c1cccc2cnccc12
  IC50: 0.38 µM
